In patent US20260132128A1, “COMPOUND FOR RECOVERING P53 MUTATION FUNCTION AND USE THEREOF” (SHENZHEN ZHONGGE BIOLOGICAL TECHNOLOGY CO., LTD., priority 2022, published 2026):
Marks after values point to notes of the source that are not given here.

Assays:
[1] = system: NUGC-3 cells; assay: NUGC-3 cell proliferation assay (CTG); type: cell-based, human; conditions: for Compound GI50 (nM)/Reference compound GI50 (nM): multiple ratio of GI50 of the compound to the reference compound; for GI50: Homo sapiens, NUGC-3, 144 h, 6 days, CTG
Method: In order to detect the inhibitory effect of the aforementioned compounds on the proliferation ability of NUGC-3 cells, 250 NUGC-3 cells (Nanjing Cobioer Biosciences Co., Ltd., CBP60492) were seeded into a 384-well plate (Corning 3765), 35 μL per well, and incubated overnight in a constant temperature incubator at 37° C. and 5% CO2. Then, 40 nL of the compound was added to the 384-well plate using an Echo 655 Liquid Handler, with a maximum final concentration of 10 μM, 1:3 serial dilutions, and a total of 10 doses. The culture was performed at 37° C. and 5% CO2 for 6 days. The plate was taken out from the incubator and equilibrated at room temperature for 10 minutes. 20 μL of CTG (Promage G7572) was added to each well of the plate according to the platemap. The plate was centrifuged at 1000 rpm for 1 min. The lysis of cells was induced by mixing on a shaker for 2 min. The plate was centrifuged at 1000 rpm for 1 min. Incubation was performed at room temperature for 10 min to stabilize luminescence signals. Luminescence values were recorded by Envision (PerkinElmer 2105-0020). GraphPad 9.0 was used to fit the inhibition rate and compound concentration into a nonlinear regression curve (dose response-variable slope) to calculate GI50, inhibition rate={1−(A−B)/(C−B)}*100%, A=signal value of compound; B=average signal of blank control; C=average signal of negative control (wherein negative control was 0.1% DMSO).

[2] = molecular target: T1, p53 Y220C (Homo sapiens, UniProt P04637, Y220C); assay: DNA binding test (HTRF): binding of P53Y220C protein to DNA; type: biochemical; conditions: multiple ratio of EC50 of the compound to the reference compound, DNA binding test
T1 construct: a truncated mutant containing only amino acids 94-312 of p53; made in house; host or cells: E. coli
Method: (§1) In order to detect the ability of the aforementioned compounds to increase the binding of P53Y220C protein to DNA, the binding activity of p53 Y220C was measured by homogeneous time-resolved fluorescence (HTRF). Recombinant His-tagged p53 Y220C for HTRF measurement was expressed in bacteria E. coli. The recombinant protein was a truncated mutant containing only amino acids 94-312 of p53, and its sequence was […] […] VEGNLR […] TFRh[…] […]. The sense strand of the DNA double strand was 5′-[…]-3′, with a biotin tag at the 5′ end for activity assay, and the antisense strand was 5′-[…]-3′ 40 mL of assay buffer (20 mM Tris HCL, pH 7.5, 50 mM NaCl, 2 mM MgCl2, 0.02% Tween 20, 0.01% BSA, 1 mM DTT) was prepared. 10 mM compound was prepared and subjected to 3-fold dilution to obtain 10 dose gradient dilutions of the compound. 20 nL of the compound was added to a 384-well assay plate (PerkinElmer 6007299) using an Echo 655 Liquid Handler. P53Y220C protein was dissolved in assay buffer to reach a final concentration of 150 nM, and 5 μL thereof was added to each well, and incubated at room temperature for 5 min. DNA was dissolved in assay buffer to reach a final concentration of 150 nM, and 5 μL thereof was added to each well, and incubated at room temperature for 15 min. Anti 6HIS-XL665 (Cisbio 61HISXLB) was dissolved in assay buffer to reach a final concentration of 20 nM, and 5 μL thereof was added to each well. Streptavidin-Eu cryptate (Cisbio 610SAKLA) was dissolved in assay buffer to reach a final concentration of 0.625 nM, and 5 μL thereof was added to each well, and incubated at 27° C. for 1 hour. The plate was then read for signal values on an Envision (PerkinElmer 2105-0020) plate reader at 665 nm and 615 nm, respectively. […] Activation rate={(A-C)/(C)}*100%, A=(signal value at 665 nm/signal value at 615 nm); C=average signal of negative control (wherein, negative control referred to 0.1% DMSO).

[3] = molecular target: T2, p53 Y220C (Homo sapiens, UniProt P04637, P309S/R273H/Y220C); assay: as above; type: biochemical; conditions: HTRF, activation of p53 Y220C (aa 94-312) binding to biotin DNA
T2 construct: a truncated mutant containing only amino acids 94-312 of p53; made in house; host or cells: E. coli
Method: as §1

Compound	Compound GI50 (nM)/Reference compound GI50 (nM) [1]	Compound EC50 (nM)/Reference compound EC50 (nM) [2]	EC50 [3]	GI50 [1]
COc1cc(C(=O)NCC(F)F)ccc1NCC#Cc1nc2c(NC3CC[C@@H](N4CC5(COC5)C4)C[C@@H]3F)cccn2c1CC(F)(F)F (stereo partly drawn) [Compound 55]	C (C: GI50 of the compound ≥ 3 * GI50 of the reference compound)	B (B: EC50 of the reference compound<EC50 of the compound≤3.0*EC50 of the reference compound)		
CNC(=O)c1ccc(NCC#Cc2nc3c(NC4CC[C@@H](N5CC6(COC6)C5)C[C@@H]4F)cccn3c2CC(F)(F)F)c(OCCF)c1 (stereo partly drawn) [Compound 63]	C (C: GI50 of the compound ≥ 3 * GI50 of the reference compound)	B (B: EC50 of the reference compound<EC50 of the compound≤3.0*EC50 of the reference compound)		
CNC(=O)c1ccc(NCC#Cc2nc3c(NC4CC[C@@H](N5CC6(CCCCC6)C5)C[C@@H]4F)cccn3c2CC(F)(F)F)c(OC)c1 (stereo partly drawn) [Compound 45]	C (C: GI50 of the compound ≥ 3 * GI50 of the reference compound)	B (B: EC50 of the reference compound<EC50 of the compound≤3.0*EC50 of the reference compound)		
CNC(=O)c1ccc(NCC#Cc2nc3c(N[C@@H]4CC[C@@H](N5CC6(CCOCC6)C5)C[C@@H]4F)cccn3c2CC(F)(F)F)c(OC)c1 [Compound 46]			< 100 nM	
CONC(=O)c1ccc(NCC#Cc2nc3c(N[C@@H]4CC[C@@H](N5CC6(COC6)C5)C[C@@H]4F)cccn3c2CC(F)(F)F)c(OC)c1 [Compound 53]			< 100 nM	
CNC(=O)c1ccc(NCC#Cc2nc3c(NC4CC[C@@H](N5CC6(COC6)C5)C[C@@H]4F)cccn3c2CC(F)(F)F)c(OC2CCC2)c1 (stereo partly drawn) [Compound 61]	C (C: GI50 of the compound ≥ 3 * GI50 of the reference compound)	B (B: EC50 of the reference compound<EC50 of the compound≤3.0*EC50 of the reference compound)		
CNC(=O)c1ccc(NCC#Cc2nc3c(NC4CC[C@@H](N5CCCC5)C[C@@H]4F)cccn3c2CC(F)(F)F)c(OC)c1 (stereo partly drawn) [Compound 41]	B (B: GI50 of the reference compound < GI50 of the compound ≤ 3.0 * GI50 of the reference compound)	B (B: EC50 of the reference compound<EC50 of the compound≤3.0*EC50 of the reference compound)		< 1000 nM
COc1cc(NCC#Cc2nc3c(NC4CCN(C)CC4)cccn3c2CC(F)(F)F)c(NC(C)=O)cn1 [Compound 26]	C (C: GI50 of the compound ≥ 3 * GI50 of the reference compound)	C (C: EC50 of the compound≥3*EC50 of the reference compound)		
CNC(=O)c1ccc(NCC#Cc2nc3c(NC4CC[C@@H](N5CC6(COC6)C5)C[C@@H]4F)cccn3c2CC(F)(F)F)c(OCC(F)F)c1 (stereo partly drawn) [Compound 62]	C (C: GI50 of the compound ≥ 3 * GI50 of the reference compound)	B (B: EC50 of the reference compound<EC50 of the compound≤3.0*EC50 of the reference compound)		
CNC(=O)c1ccc(NCC#Cc2nc3c(N[C@@H]4CCC(N5CCCCC5)C[C@@H]4F)cccn3c2CC(F)(F)F)c(OC)c1 (stereo partly drawn) [Compound 43]	C (C: GI50 of the compound ≥ 3 * GI50 of the reference compound)	C (C: EC50 of the compound≥3*EC50 of the reference compound)		
CNC(=O)c1ccc(NCC#Cc2nc3c(NC4CC[C@@H](N5CC6(CCOCC6)C5)C[C@@H]4F)cccn3c2CC(F)(F)F)c(OC)c1 (stereo partly drawn) [Compound 46]	B (B: GI50 of the reference compound < GI50 of the compound ≤ 3.0 * GI50 of the reference compound)	A (A: EC50 of the compound≤EC50 of the reference compound)		< 1000 nM
CNC(=O)c1ccc(NCC#Cc2cc3c(N[C@@H]4CCN(C)C[C@@H]4F)ccnn3c2CC(F)(F)F)c(OC)c1 [Compound 85]	C (C: GI50 of the compound ≥ 3 * GI50 of the reference compound)	C (C: EC50 of the compound≥3*EC50 of the reference compound)		
